Assay results reported in PubChem BioAssay (NCI).
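Step 1: Grow cells in 96-well plates. Step 2: Expose to compound for 48 hours at 5 concentrations. Step 3: Interpolate endpoints linearly; if unreached, use highest concentration. GI50 = concentration required for 50% inhibition of growth. TGI: total growth inhibition.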

Experiments:
Experiment in all cases: NCI-60 cell line screen, 48 h
786-0 renal = tested on: 786-0 renal
A498 renal = tested on: A498 renal
A549 NSCLC = tested on: A549 NSCLC
ACHN renal = tested on: ACHN renal
BT-549 breast = tested on: BT-549 breast
CAKI-1 renal = tested on: CAKI-1 renal
CCRF-CEM leukemia = tested on: CCRF-CEM leukemia
COLO 205 colon = tested on: COLO 205 colon
DU-145 prostate = tested on: DU-145 prostate
EKVX NSCLC = tested on: EKVX NSCLC
HCC-2998 colon = tested on: HCC-2998 colon
HCT-116 colon = tested on: HCT-116 colon
HCT-15 colon = tested on: HCT-15 colon
HL-60(TB) leukemia = tested on: HL-60(TB) leukemia
HOP-62 NSCLC = tested on: HOP-62 NSCLC
HOP-92 NSCLC = tested on: HOP-92 NSCLC
HS 578T breast = tested on: HS 578T breast
HT29 colon = tested on: HT29 colon
IGROV1 ovarian = tested on: IGROV1 ovarian
K-562 leukemia = tested on: K-562 leukemia
KM12 colon = tested on: KM12 colon
LOX IMVI melanoma = tested on: LOX IMVI melanoma
M14 melanoma = tested on: M14 melanoma
MALME-3M melanoma = tested on: MALME-3M melanoma
MCF7 breast = tested on: MCF7 breast
MDA-MB-231 breast = tested on: MDA-MB-231 breast
MDA-MB-435 = tested on: MDA-MB-435
MOLT-4 leukemia = tested on: MOLT-4 leukemia
NCI-H226 lung = tested on: NCI-H226 lung
NCI-H23 lung = tested on: NCI-H23 lung
NCI-H460 lung = tested on: NCI-H460 lung
NCI-H522 lung = tested on: NCI-H522 lung
NCI/ADR-RES ovarian = tested on: NCI/ADR-RES ovarian
OVCAR-4 ovarian = tested on: OVCAR-4 ovarian
OVCAR-5 ovarian = tested on: OVCAR-5 ovarian
OVCAR-8 ovarian = tested on: OVCAR-8 ovarian
PC-3 prostate = tested on: PC-3 prostate
RPMI-8226 leukemia = tested on: RPMI-8226 leukemia
RXF 393 renal = tested on: RXF 393 renal
SF-268 CNS = tested on: SF-268 CNS
SF-295 CNS = tested on: SF-295 CNS
SF-539 CNS = tested on: SF-539 CNS
SK-MEL-2 melanoma = tested on: SK-MEL-2 melanoma
SK-MEL-28 melanoma = tested on: SK-MEL-28 melanoma
SK-MEL-5 melanoma = tested on: SK-MEL-5 melanoma
SK-OV-3 ovarian = tested on: SK-OV-3 ovarian
SN12C renal = tested on: SN12C renal
SNB-19 CNS = tested on: SNB-19 CNS
SNB-75 CNS = tested on: SNB-75 CNS
SR leukemia = tested on: SR leukemia
SW-620 colon = tested on: SW-620 colon
T-47D breast = tested on: T-47D breast
TK-10 renal = tested on: TK-10 renal
U251 CNS = tested on: U251 CNS
UACC-257 melanoma = tested on: UACC-257 melanoma
UACC-62 melanoma = tested on: UACC-62 melanoma
UO-31 renal = tested on: UO-31 renal

SMILES: Oc1ccc(CSc2nnc(-c3ccc(Oc4ccccc4)cc3)n2-c2ccccc2)c2cccnc12
- GI50 (786-0 renal): 527 nM
- TGI (786-0 renal): 11300 nM
- GI50 (A498 renal): 641 nM
- TGI (A498 renal): 19800 nM
- GI50 (A549 NSCLC): 133 nM
- TGI (A549 NSCLC): > 33200 nM
- GI50 (ACHN renal): 137 nM
- TGI (ACHN renal): 10900 nM
- GI50 (BT-549 breast): 105 nM
- TGI (BT-549 breast): > 100000 nM
- GI50 (CAKI-1 renal): 313 nM
- TGI (CAKI-1 renal): 15200 nM
- GI50 (CCRF-CEM leukemia): 72.9 nM
- TGI (CCRF-CEM leukemia): > 100000 nM
- GI50 (COLO 205 colon): 1270 nM
- TGI (COLO 205 colon): > 100000 nM
- GI50 (DU-145 prostate): 340 nM
- TGI (DU-145 prostate): > 100000 nM
- GI50 (EKVX NSCLC): 339 nM
- TGI (EKVX NSCLC): > 100000 nM
- GI50 (HCC-2998 colon): 154 nM
- TGI (HCC-2998 colon): > 100000 nM
- GI50 (HCT-116 colon): 41.3 nM
- TGI (HCT-116 colon): 16000 nM
- GI50 (HCT-15 colon): 179 nM
- TGI (HCT-15 colon): > 100000 nM
- GI50 (HL-60(TB) leukemia): 79.8 nM
- TGI (HL-60(TB) leukemia): 1060 nM
- GI50 (HOP-62 NSCLC): 304 nM
- TGI (HOP-62 NSCLC): > 34600 nM
- GI50 (HOP-92 NSCLC): 213 nM
- TGI (HOP-92 NSCLC): 31800 nM
- GI50 (HS 578T breast): 325 nM
- TGI (HS 578T breast): > 100000 nM
- GI50 (HT29 colon): 4100 nM
- TGI (HT29 colon): > 100000 nM
- GI50 (IGROV1 ovarian): 166 nM
- TGI (IGROV1 ovarian): > 55900 nM
- GI50 (K-562 leukemia): 155 nM
- TGI (K-562 leukemia): > 53100 nM
- GI50 (KM12 colon): 176 nM
- TGI (KM12 colon): > 100000 nM
- GI50 (LOX IMVI melanoma): 169 nM
- TGI (LOX IMVI melanoma): 7180 nM
- GI50 (M14 melanoma): 95.4 nM
- TGI (M14 melanoma): 1120 nM
- GI50 (MALME-3M melanoma): 340 nM
- TGI (MALME-3M melanoma): 11000 nM
- GI50 (MCF7 breast): 94.2 nM
- TGI (MCF7 breast): > 100000 nM
- GI50 (MDA-MB-231 breast): 355 nM
- TGI (MDA-MB-231 breast): 33000 nM
- GI50 (MDA-MB-435): 57 nM
- TGI (MDA-MB-435): > 100000 nM
- GI50 (MOLT-4 leukemia): 100 nM
- TGI (MOLT-4 leukemia): > 38500 nM
- GI50 (NCI-H226 lung): 369 nM
- TGI (NCI-H226 lung): > 100000 nM
- GI50 (NCI-H23 lung): 260 nM
- TGI (NCI-H23 lung): 25600 nM
- GI50 (NCI-H460 lung): 38.5 nM
- GI50 (NCI-H522 lung): 226 nM
- GI50 (NCI/ADR-RES ovarian): 270 nM
- TGI (NCI/ADR-RES ovarian): 6990 nM
- GI50 (OVCAR-4 ovarian): 451 nM
- TGI (OVCAR-4 ovarian): > 72300 nM
- GI50 (OVCAR-5 ovarian): 639 nM
- TGI (OVCAR-5 ovarian): > 100000 nM
- GI50 (OVCAR-8 ovarian): 146 nM
- TGI (OVCAR-8 ovarian): > 46500 nM
- GI50 (PC-3 prostate): 83.4 nM
- TGI (PC-3 prostate): > 100000 nM
- GI50 (RPMI-8226 leukemia): 146 nM
- TGI (RPMI-8226 leukemia): > 100000 nM
- GI50 (RXF 393 renal): 981 nM
- TGI (RXF 393 renal): > 58700 nM
- GI50 (SF-268 CNS): 73.9 nM
- TGI (SF-268 CNS): > 100000 nM
- GI50 (SF-295 CNS): 208 nM
- TGI (SF-295 CNS): > 69200 nM
- GI50 (SF-539 CNS): 230 nM
- TGI (SF-539 CNS): 9870 nM
- GI50 (SK-MEL-2 melanoma): 442 nM
- TGI (SK-MEL-2 melanoma): > 25500 nM
- GI50 (SK-MEL-28 melanoma): 247 nM
- TGI (SK-MEL-28 melanoma): > 100000 nM
- GI50 (SK-MEL-5 melanoma): 222 nM
- TGI (SK-MEL-5 melanoma): 2400 nM
- GI50 (SK-OV-3 ovarian): 307 nM
- GI50 (SN12C renal): 275 nM
- TGI (SN12C renal): > 100000 nM
- GI50 (SNB-19 CNS): 223 nM
- TGI (SNB-19 CNS): > 100000 nM
- GI50 (SNB-75 CNS): 188 nM
- TGI (SNB-75 CNS): 22700 nM
- GI50 (SR leukemia): 66.4 nM
- TGI (SR leukemia): 20300 nM
- GI50 (SW-620 colon): 182 nM
- TGI (SW-620 colon): > 100000 nM
- GI50 (T-47D breast): 263 nM
- TGI (T-47D breast): 9180 nM
- GI50 (TK-10 renal): 153 nM
- TGI (TK-10 renal): > 42400 nM
- GI50 (U251 CNS): 69.6 nM
- TGI (U251 CNS): > 35600 nM
- GI50 (UACC-257 melanoma): 186 nM
- TGI (UACC-257 melanoma): 843 nM
- GI50 (UACC-62 melanoma): 256 nM
- TGI (UACC-62 melanoma): 1130 nM
- GI50 (UO-31 renal): 142 nM
- TGI (UO-31 renal): 2450 nM
